# In patent publication US9295673B2, “Combination of mTOR inhibitors and P13-kinase inhibitors, and uses thereof” (Intellikine LLC, priority 2011, dated 2016):
# Biological target: PI3K γ (Homo sapiens, UniProt P48736)
# Assay: PI 3-Kinase (human) HTRF assay, PI3K γ
# Details: not given
# Chain of PI3K γ (P48736 whole entry): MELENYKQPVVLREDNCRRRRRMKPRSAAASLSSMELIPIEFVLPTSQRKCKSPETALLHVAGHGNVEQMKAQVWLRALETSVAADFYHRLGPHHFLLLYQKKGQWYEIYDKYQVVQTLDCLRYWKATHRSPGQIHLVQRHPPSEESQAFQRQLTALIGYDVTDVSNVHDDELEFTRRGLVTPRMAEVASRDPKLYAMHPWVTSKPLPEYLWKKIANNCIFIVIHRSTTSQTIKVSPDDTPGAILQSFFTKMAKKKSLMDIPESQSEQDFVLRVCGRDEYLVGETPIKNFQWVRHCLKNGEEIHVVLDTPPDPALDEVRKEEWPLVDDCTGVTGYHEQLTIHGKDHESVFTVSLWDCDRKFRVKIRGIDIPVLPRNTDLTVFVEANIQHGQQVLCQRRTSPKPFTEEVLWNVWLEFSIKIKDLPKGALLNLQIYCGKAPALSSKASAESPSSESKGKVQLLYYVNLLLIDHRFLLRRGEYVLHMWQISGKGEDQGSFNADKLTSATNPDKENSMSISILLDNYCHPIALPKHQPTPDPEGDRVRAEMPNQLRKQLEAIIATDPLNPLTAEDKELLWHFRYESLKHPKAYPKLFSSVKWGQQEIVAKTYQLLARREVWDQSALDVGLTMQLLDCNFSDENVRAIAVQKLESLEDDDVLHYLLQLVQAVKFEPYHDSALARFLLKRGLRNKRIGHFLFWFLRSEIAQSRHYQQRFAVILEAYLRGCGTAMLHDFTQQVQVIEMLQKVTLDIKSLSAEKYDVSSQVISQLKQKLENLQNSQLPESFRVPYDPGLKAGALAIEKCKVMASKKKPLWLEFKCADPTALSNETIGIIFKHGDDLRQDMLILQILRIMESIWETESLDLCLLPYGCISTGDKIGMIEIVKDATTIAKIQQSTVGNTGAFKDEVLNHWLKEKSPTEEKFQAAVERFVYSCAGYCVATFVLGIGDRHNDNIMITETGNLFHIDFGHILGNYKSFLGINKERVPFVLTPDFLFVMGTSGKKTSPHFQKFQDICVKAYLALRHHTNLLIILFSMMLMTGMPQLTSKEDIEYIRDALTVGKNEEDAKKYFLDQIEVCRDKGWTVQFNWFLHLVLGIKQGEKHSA
row,IC50 [µM],SMILES
1,< 1,Nc1nsc2cc(-c3ccc4nccc(-c5ccncc5)c4c3)ccc12 [Compound 13]
2,< 1,Nc1nc2cc(-c3ccc4ncc(C(=O)NCCOCCO)n4c3)ccc2o1 [Compound 550]
3,< 0.1,Nc1nc2cc(-c3ccc4ncc(N5CCNC(=O)C5)nc4n3)ccc2o1 [Compound 580]

# Same assay, conditions: read-out: PI3K γ IC50
row,SMILES,IC50 [µM]
1,Nc1nc2cc(-c3ccc4ncc(C(=O)N5CCN(CC6CC6)CC5)n4c3)ccc2o1 [Compound 161],< 10
2,CC(=O)Nc1nc2ccc(-c3nc(N4CCOCC4)c4sc(CN5CCN(S(C)(=O)=O)CC5)cc4n3)cc2s1 [Compound 130],> 10

# Same assay, conditions: read-out: PI3K γ IC50; Table 4
row,IC50 [µM],SMILES
1,< 0.1,Nc1nc2cc(-c3ccc4ncc(N5CC6CCC(C5)O6)cc4n3)ccc2o1 [Compound 610]
2,< 10,Nc1nc2cc(-c3cnc4ccc(N5CCOCC5)nc4c3)ccc2o1 [Compound 624]
3,< 10,C[C@@H]1COCCN1C1CN(c2cnc3ccc(-c4ccc5oc(N)nc5c4)nc3n2)C1 [Compound 600]

# Same assay, conditions: read-out: PI3K γ IC50; in vitro
row,IC50 [µM],SMILES
1,< 10,Cn1ncc2c(-c3ccc4ncc(C(=O)N5CCOCC5)n4c3)cncc21 [Compound 537]
2,> 10,Cc1cc(-c2ccc3nc(N)oc3c2)cn2c(-c3ccncc3)nnc12 [Compound 543]
3,> 10,CNS(=O)(=O)c1cc(-c2ccc3ncc(C(=O)N4CCOCC4)n3c2)ccc1OC [Compound 445]

# Biological target: PI3K β (Homo sapiens, UniProt P42338)
# Sequence (P42338 whole entry): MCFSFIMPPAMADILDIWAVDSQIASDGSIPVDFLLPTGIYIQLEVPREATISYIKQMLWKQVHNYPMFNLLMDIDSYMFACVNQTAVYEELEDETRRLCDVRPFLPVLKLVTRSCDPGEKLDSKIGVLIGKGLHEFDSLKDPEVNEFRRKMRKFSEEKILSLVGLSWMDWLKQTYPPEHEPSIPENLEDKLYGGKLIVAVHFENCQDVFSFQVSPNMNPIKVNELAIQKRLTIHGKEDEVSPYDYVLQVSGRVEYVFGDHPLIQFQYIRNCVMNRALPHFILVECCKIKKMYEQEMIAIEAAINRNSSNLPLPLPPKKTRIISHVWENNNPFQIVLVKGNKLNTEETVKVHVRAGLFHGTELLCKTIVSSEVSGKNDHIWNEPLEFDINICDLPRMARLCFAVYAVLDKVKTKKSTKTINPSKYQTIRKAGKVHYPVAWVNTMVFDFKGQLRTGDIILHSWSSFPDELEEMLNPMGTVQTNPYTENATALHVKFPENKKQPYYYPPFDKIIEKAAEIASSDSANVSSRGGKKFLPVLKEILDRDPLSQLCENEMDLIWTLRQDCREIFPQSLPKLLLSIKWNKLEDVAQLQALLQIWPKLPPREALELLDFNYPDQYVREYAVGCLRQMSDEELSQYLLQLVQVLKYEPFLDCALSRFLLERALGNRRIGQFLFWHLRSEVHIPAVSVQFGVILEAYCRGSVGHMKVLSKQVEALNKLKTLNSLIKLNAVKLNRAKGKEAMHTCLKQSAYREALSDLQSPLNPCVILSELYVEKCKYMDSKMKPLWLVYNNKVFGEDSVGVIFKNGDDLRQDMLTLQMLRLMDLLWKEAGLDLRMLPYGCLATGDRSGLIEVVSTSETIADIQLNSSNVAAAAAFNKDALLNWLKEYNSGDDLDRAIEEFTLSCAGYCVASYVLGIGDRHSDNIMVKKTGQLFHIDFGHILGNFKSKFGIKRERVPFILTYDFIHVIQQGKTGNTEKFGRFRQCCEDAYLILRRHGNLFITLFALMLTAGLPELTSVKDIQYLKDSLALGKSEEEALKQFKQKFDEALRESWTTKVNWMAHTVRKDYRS
# Sequence (P27986 whole entry partner): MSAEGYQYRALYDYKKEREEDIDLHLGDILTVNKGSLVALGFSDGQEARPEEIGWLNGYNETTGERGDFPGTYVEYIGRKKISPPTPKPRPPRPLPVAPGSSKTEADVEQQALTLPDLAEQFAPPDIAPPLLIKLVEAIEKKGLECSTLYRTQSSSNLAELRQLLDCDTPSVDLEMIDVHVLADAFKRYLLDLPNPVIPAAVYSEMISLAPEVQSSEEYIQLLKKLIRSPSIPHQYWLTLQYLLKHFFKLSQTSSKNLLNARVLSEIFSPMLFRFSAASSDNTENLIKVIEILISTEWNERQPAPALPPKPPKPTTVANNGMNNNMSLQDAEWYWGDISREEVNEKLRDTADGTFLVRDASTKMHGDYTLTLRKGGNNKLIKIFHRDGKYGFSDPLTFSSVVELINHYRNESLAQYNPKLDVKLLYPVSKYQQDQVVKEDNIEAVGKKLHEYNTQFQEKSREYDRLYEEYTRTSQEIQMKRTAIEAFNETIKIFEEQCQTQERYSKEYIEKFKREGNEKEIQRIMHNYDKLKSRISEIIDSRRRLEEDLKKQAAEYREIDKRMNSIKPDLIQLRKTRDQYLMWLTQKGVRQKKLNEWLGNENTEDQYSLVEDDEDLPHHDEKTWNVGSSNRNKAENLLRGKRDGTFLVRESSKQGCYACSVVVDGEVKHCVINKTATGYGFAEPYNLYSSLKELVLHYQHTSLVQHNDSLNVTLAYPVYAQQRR
# Assay: PI 3-Kinase (human) HTRF assay, PI3K β
# Details: not given
row,IC50 [µM],SMILES
1,< 1,Nc1nsc2cc(-c3ccc4nccc(-c5ccncc5)c4c3)ccc12 [Compound 13]
2,< 1,Nc1nc2cc(-c3ccc4ncc(N5CCNC(=O)C5)nc4n3)ccc2o1 [Compound 580]

# Same assay, conditions: read-out: PI3K β IC50
row,IC50 [µM],SMILES
1,> 10,CC(=O)Nc1nc2ccc(-c3nc(N4CCOCC4)c4sc(CN5CCN(S(C)(=O)=O)CC5)cc4n3)cc2s1 [Compound 130]
2,< 1,CN1CCN(CCNC(=O)c2cnc3ccc(-c4ccc5oc(N)nc5c4)cn23)CC1 [Compound 306]
3,< 0.1,C[C@H]1CN(c2cnc3ccc(-c4ccc5oc(N)nc5c4)cc3n2)CCN1C [Compound 332]
4,< 1,CC(C)[C@H](N)C(=O)N1CCN(c2cnc3ccc(-c4ccc5oc(N)nc5c4)cc3n2)CC1 [Compound 269]

row,SMILES,IC50 [µM]
1,Nc1nc2cc(-c3ccc4ncc(C(=O)N5CCN(CC6CC6)CC5)n4c3)ccc2o1 [Compound 161],< 10

# Same assay, conditions: read-out: PI3K β IC50; Table 4
row,IC50 [µM],SMILES
1,> 10,Nc1nc2cc(-c3ccc4ncc(N5CC6CCC(C5)O6)cc4n3)ccc2o1 [Compound 610]
2,< 10,CN1CCN(c2ccc3ncc(-c4ccc5oc(N)nc5c4)cc3n2)CC1 [Compound 631]

# Same assay, conditions: read-out: PI3K β IC50; in vitro
row,IC50 [µM],SMILES
1,< 10,[2H]c1c(-c2ccc3ncc(C(=O)N4CCOCC4)n3c2)c([2H])c2nc(N)oc2c1[2H] [Compound 531]
2,> 10,[2H]C1([2H])OC([2H])([2H])C([2H])([2H])N(C(=O)c2cnc3ccc(-c4ccc5oc(N)nc5c4)cn23)C1([2H])[2H] [Compound 529]
3,< 10,Cc1cc(-c2ccc3nc(N)oc3c2)cn2c(-c3ccncc3)nnc12 [Compound 543]
4,> 10,CNS(=O)(=O)c1cc(-c2ccc3ncc(C(=O)N4CCOCC4)n3c2)ccc1OC [Compound 445]
5,< 10,O=C(c1cnc2ccc(-c3ccc(Cl)c(NS(=O)(=O)c4ccc(F)cc4F)c3)cn12)N1CCOCC1 [Compound 461]

# Biological target: PI3K δ (Homo sapiens, UniProt O00329)
# Sequence (O00329 whole entry): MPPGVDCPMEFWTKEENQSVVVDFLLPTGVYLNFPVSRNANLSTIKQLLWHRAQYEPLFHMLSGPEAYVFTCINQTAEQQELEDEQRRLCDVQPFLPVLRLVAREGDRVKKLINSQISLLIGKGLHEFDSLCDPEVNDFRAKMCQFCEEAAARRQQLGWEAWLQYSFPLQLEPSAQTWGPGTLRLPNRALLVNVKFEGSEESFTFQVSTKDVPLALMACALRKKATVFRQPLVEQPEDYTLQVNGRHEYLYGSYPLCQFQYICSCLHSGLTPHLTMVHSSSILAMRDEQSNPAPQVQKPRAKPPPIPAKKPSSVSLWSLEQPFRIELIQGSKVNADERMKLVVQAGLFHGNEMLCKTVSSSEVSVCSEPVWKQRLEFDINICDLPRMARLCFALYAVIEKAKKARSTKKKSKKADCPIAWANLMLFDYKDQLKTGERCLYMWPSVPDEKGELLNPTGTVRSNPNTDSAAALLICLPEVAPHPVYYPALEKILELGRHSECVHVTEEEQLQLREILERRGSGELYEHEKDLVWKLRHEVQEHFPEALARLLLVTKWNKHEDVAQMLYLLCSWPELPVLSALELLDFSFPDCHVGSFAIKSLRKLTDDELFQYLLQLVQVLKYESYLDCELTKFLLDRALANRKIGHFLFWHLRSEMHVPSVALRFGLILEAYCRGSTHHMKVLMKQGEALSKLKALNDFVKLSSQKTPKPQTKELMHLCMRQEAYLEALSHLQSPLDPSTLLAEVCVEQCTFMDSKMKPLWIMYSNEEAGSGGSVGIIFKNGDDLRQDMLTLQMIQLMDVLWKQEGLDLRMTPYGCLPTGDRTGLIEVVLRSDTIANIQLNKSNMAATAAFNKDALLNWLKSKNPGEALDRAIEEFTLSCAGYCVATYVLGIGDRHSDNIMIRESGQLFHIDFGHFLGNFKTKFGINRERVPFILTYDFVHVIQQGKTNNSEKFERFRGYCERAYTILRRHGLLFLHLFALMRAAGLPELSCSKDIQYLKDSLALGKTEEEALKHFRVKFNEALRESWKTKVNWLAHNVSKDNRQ
# Sequence (P27986 whole entry partner): as the sequence (P27986 whole entry partner) above
# Assay: PI 3-Kinase (human) HTRF assay, PI3K δ
# Details: not given
row,SMILES,IC50 [µM]
1,Nc1nsc2cc(-c3ccc4nccc(-c5ccncc5)c4c3)ccc12 [Compound 13],< 1
2,COC(=O)Nc1noc2ccc(-c3nn(C(C)C)c4ncnc(N)c34)cc12 [Compound 20],< 10

# Same assay, conditions: read-out: PI3K δ IC50
row,IC50 [µM],SMILES
1,> 10,CC(=O)Nc1nc2ccc(-c3nc(N4CCOCC4)c4sc(CN5CCN(S(C)(=O)=O)CC5)cc4n3)cc2s1 [Compound 130]
2,< 1,CN1CCN(CCNC(=O)c2cnc3ccc(-c4ccc5oc(N)nc5c4)cn23)CC1 [Compound 306]
3,< 10,C[C@H]1CN(c2cnc3ccc(-c4ccc5oc(N)nc5c4)cc3n2)CCN1C [Compound 332]
4,< 1,CC(C)[C@H](N)C(=O)N1CCN(c2cnc3ccc(-c4ccc5oc(N)nc5c4)cc3n2)CC1 [Compound 269]

row,SMILES,IC50 [µM]
1,Nc1nc2cc(-c3ccc4ncc(C(=O)N5CCN(CC6CC6)CC5)n4c3)ccc2o1 [Compound 161],< 10

# Same assay, conditions: read-out: PI3K δ IC50; Table 4
row,IC50 [µM],SMILES
1,> 10,Nc1nc2cc(-c3ccc4ncc(N5CC6CCC(C5)O6)cc4n3)ccc2o1 [Compound 610]

# Same assay, conditions: read-out: PI3K δ IC50; in vitro
row,IC50 [µM],SMILES
1,> 10,[2H]c1c(-c2ccc3ncc(C(=O)N4CCOCC4)n3c2)c([2H])c2nc(N)oc2c1[2H] [Compound 531]
2,> 10,[2H]C1([2H])OC([2H])([2H])C([2H])([2H])N(C(=O)c2cnc3ccc(-c4ccc5oc(N)nc5c4)cn23)C1([2H])[2H] [Compound 529]
3,> 10,Cc1cc(-c2ccc3nc(N)oc3c2)cn2c(-c3ccncc3)nnc12 [Compound 543]
4,> 10,CNS(=O)(=O)c1cc(-c2ccc3ncc(C(=O)N4CCOCC4)n3c2)ccc1OC [Compound 445]
5,< 10,O=C(c1cnc2ccc(-c3ccc(Cl)c(NS(=O)(=O)c4ccc(F)cc4F)c3)cn12)N1CCOCC1 [Compound 461]

# Biological target: PI3K α (Homo sapiens, UniProt P42336)
# Sequence (P42336 whole entry): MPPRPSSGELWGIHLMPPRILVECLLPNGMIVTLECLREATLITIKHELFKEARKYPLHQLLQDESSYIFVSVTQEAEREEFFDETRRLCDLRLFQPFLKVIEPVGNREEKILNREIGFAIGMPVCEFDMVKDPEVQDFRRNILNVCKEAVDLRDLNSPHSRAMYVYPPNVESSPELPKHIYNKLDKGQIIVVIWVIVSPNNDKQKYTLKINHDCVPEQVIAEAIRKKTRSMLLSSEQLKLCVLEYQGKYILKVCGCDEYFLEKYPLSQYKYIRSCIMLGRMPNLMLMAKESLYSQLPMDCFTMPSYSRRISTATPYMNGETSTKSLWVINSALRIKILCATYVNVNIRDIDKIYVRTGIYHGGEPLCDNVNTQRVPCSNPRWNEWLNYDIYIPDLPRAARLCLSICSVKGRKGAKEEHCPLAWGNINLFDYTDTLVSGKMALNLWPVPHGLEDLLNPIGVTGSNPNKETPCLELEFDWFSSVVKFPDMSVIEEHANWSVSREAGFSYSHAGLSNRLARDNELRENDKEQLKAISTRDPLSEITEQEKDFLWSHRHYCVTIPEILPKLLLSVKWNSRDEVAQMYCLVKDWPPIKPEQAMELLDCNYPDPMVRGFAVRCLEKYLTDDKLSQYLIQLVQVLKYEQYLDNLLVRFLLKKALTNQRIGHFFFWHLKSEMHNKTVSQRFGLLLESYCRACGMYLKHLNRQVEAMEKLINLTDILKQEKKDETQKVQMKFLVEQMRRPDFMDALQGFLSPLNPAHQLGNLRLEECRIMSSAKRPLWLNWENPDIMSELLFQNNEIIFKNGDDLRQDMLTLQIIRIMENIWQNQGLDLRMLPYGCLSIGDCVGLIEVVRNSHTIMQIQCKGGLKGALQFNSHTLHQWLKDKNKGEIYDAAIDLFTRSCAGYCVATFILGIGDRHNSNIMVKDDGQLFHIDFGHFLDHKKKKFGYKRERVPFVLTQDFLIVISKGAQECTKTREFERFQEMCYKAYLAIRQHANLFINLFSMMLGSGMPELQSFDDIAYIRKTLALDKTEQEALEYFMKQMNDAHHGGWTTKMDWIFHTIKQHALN
# Sequence (P27986 whole entry partner): as the sequence (P27986 whole entry partner) above
# Assay: PI 3-Kinase (human) HTRF assay, PI3K α
# Details: not given
row,IC50 [µM],SMILES
1,< 1,Nc1nc2cc(-c3ccc4ncc(C(=O)NCCOCCO)n4c3)ccc2o1 [Compound 550]
2,< 0.1,Nc1nc2cc(-c3ccc4ncc(N5CCNC(=O)C5)nc4n3)ccc2o1 [Compound 580]

# Further lines, the molecule ahead of its results:
row,SMILES,IC50 [µM]
1,Nc1nsc2cc(-c3ccc4nccc(-c5ccncc5)c4c3)ccc12 [Compound 13],< 0.1
2,COC(=O)Nc1noc2ccc(-c3nn(C(C)C)c4ncnc(N)c34)cc12 [Compound 20],< 10

# Same assay, conditions: read-out: PI3K α IC50
row,IC50 [µM],SMILES
1,> 10,CC(=O)Nc1nc2ccc(-c3nc(N4CCOCC4)c4sc(CN5CCN(S(C)(=O)=O)CC5)cc4n3)cc2s1 [Compound 130]
2,< 0.1,Nc1nc2cc(-c3ccc4ncc(C(=O)N5CCOCC5)n4c3)ccc2o1 [Compound 54]
3,< 0.1,CN1CCN(CCNC(=O)c2cnc3ccc(-c4ccc5oc(N)nc5c4)cn23)CC1 [Compound 306]
4,< 1,C[C@H]1CN(c2cnc3ccc(-c4ccc5oc(N)nc5c4)cc3n2)CCN1C [Compound 332]
5,< 0.1,CC(C)[C@H](N)C(=O)N1CCN(c2cnc3ccc(-c4ccc5oc(N)nc5c4)cc3n2)CC1 [Compound 269]

row,SMILES,IC50 [µM]
1,Nc1nc2cc(-c3ccc4ncc(C(=O)N5CCN(CC6CC6)CC5)n4c3)ccc2o1 [Compound 161],< 1

# Same assay, conditions: read-out: PI3K α IC50; Table 4
row,IC50 [µM],SMILES
1,< 0.1,Nc1nc2cc(-c3ccc4ncc(N5CC6CCC(C5)O6)cc4n3)ccc2o1 [Compound 610]
2,< 10,CC(C)N1CCN(C2CN(c3cnc4ccc(-c5ccc6oc(N)nc6c5)nc4n3)C2)CC1 [Compound 628]
3,< 10,CN1CCN(c2ccc3ncc(-c4ccc5oc(N)nc5c4)cc3n2)CC1 [Compound 631]
4,< 10,Nc1nc2cc(-c3cnc4ccc(N5CCOCC5)nc4c3)ccc2o1 [Compound 624]
5,< 10,C[C@@H]1COCCN1C1CN(c2cnc3ccc(-c4ccc5oc(N)nc5c4)nc3n2)C1 [Compound 600]
6,< 10,CC(C)(N)C(=O)N1CCN(c2ccc3ncc(-c4ccc5oc(N)nc5c4)cc3n2)CC1 [Compound 633]

# Same assay, conditions: read-out: PI3K α IC50; in vitro
row,IC50 [µM],SMILES
1,< 10,Cc1ncc(-c2ccc3ncc(C(=O)N4CCOCC4)n3c2)c2cc[nH]c12 [Compound 536]
2,< 0.1,[2H]c1c(-c2ccc3ncc(C(=O)N4CCOCC4)n3c2)c([2H])c2nc(N)oc2c1[2H] [Compound 531]
3,< 10,Cn1ncc2c(-c3ccc4ncc(C(=O)N5CCOCC5)n4c3)cncc21 [Compound 537]
4,< 1,[2H]C1([2H])OC([2H])([2H])C([2H])([2H])N(C(=O)c2cnc3ccc(-c4ccc5oc(N)nc5c4)cn23)C1([2H])[2H] [Compound 529]
5,> 10,Cc1cc(-c2ccc3nc(N)oc3c2)cn2c(-c3ccncc3)nnc12 [Compound 543]
6,> 10,CNS(=O)(=O)c1cc(-c2ccc3ncc(C(=O)N4CCOCC4)n3c2)ccc1OC [Compound 445]
7,< 1,O=C(c1cnc2ccc(-c3ccc(Cl)c(NS(=O)(=O)c4ccc(F)cc4F)c3)cn12)N1CCOCC1 [Compound 461]
8,< 10,O=C(c1cnc2ccc(-c3cnc4cc[nH]c4c3)cn12)N1CCOCC1 [Compound 534]
